Format in all cases: biochemical
For one test, the target named is TYK2 kinase (Homo sapiens (Human), UniProt P29597). Briefly: TYK2 kinase inhibition assay (33P-ATP, Reaction Biology Corp.). Particulars: substrate AXLtide, 120 min at room temperature, read-out: In Vitro Enzyme IC50 (nM) TYK2. As to the method: (§1) Compounds of the invention were assayed for their ability to inhibit TYK2 kinase and other JAK kinases.
(§2) Substrates and kinases used in the assays are identified in Table 2 below.

A further test deals with JAK1 (Homo sapiens (Human), UniProt P23458). Briefly: JAK1 kinase inhibition assay (33P-ATP, Reaction Biology Corp.). Particulars: substrate pEY, 120 min at room temperature, read-out: In Vitro Enzyme IC50 (nM) JAK1. As for the experimental part: as §1, §2
For the next test, the target named is JAK2 (Homo sapiens (Human), UniProt O60674). The experiment in a line: JAK2 kinase inhibition assay (33P-ATP, Reaction Biology Corp.). Particulars: substrate pEY, 120 min at room temperature, read-out: In Vitro Enzyme IC50 (nM) JAK2. As for the experimental part:
as §1, §2

Another test has as its target JAK3 (Homo sapiens (Human), UniProt P52333). The experiment in a line: JAK3 kinase inhibition assay (33P-ATP, Reaction Biology Corp.). Particulars: substrate JAK3tide, 120 min at room temperature, read-out: In Vitro Enzyme IC50 (nM) JAK3. As for the experimental part: as §1, §2

Chain of JAK2 (O60674 809-1132): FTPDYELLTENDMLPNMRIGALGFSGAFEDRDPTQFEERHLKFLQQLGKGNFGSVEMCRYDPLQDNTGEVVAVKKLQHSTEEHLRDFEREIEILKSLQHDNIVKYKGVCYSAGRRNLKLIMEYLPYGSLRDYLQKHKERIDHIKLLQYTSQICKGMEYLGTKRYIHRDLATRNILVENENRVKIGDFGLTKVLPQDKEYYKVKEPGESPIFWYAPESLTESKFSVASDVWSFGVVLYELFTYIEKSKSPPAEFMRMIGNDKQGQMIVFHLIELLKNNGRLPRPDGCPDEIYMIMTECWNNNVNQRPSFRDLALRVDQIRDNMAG
Chain of TYK2 kinase (P29597 833-1187): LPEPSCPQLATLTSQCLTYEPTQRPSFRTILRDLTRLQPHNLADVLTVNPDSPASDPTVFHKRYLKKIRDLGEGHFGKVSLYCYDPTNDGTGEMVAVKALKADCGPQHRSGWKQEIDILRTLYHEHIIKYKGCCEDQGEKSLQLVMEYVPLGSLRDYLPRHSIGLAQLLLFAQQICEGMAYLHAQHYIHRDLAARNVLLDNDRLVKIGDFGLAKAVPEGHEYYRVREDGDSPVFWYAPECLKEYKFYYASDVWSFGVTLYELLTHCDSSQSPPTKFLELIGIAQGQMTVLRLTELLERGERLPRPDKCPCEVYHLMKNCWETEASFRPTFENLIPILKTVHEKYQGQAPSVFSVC
Chain of JAK1 (P23458 866-1154): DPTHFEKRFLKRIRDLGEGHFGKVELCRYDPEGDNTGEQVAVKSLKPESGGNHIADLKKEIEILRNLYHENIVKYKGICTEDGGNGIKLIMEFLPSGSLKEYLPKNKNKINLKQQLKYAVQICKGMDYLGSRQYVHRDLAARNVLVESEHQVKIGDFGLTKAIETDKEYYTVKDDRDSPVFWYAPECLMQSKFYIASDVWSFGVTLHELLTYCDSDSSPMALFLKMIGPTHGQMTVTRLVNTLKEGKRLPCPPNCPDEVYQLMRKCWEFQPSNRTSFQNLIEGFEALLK
Chain of JAK3 (P52333 781-1124): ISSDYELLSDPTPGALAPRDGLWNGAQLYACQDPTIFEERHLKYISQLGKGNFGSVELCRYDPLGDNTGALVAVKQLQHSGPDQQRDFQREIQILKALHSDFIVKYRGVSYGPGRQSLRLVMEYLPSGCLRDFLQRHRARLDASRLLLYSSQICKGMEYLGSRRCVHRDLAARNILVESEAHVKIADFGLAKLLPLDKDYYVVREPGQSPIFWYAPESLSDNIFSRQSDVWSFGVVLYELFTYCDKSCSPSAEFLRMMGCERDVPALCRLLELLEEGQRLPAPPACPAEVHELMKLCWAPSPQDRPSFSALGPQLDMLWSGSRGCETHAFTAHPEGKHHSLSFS

The IC50 is the midpoint of a concentration-inhibition curve. On to `NC(=O)c1nc(-c2c(F)cccc2F)oc1Nc1ccc(C(=O)NC2CCNCC2)cc1` [Example 17, 2-(2,6-difluorophenyl)-5-(4-(piperidin-4-ylcarbamoyl)phenylamino)oxazole-4-carboxamide], for which the IC50 was 13.7 nM on TYK2 kinase, 153 nM at JAK1, 167 nM on JAK2 and 99.2 nM at JAK3.
In the same order, the values of `NC(=O)c1nc(-c2c(F)cccc2F)oc1Nc1ccc(C(=O)N[C@H]2CCCNC2)cc1` [Example 8, (S)-2-(2,6-difluorophenyl)-5-(4-(piperidin-3-ylcarbamoyl)phenylamino)oxazole-4-carboxamide] are 12.9 nM, 201 nM, 268 nM and 408 nM.
The matching figures for `CN(C)S(=O)(=O)c1ccc(Nc2oc(-c3c(F)cccc3F)nc2C(N)=O)cc1` [Example 3, 2-(2,6-difluorophenyl)-5-(4-(N,N-dimethylsulfamoyl)phenylamino)oxazole-4-carboxamide]: 5.3 nM, 47.6 nM, 95 nM and 359 nM.
The matching figures for `CS(=O)(=O)c1ccc(Nc2oc(-c3c(F)cc(F)cc3F)nc2C(N)=O)cc1` [Example 21, 5-(4-Methanesulfonyl-phenylamino)-2-(2,4,6-trifluoro-phenyl)-oxazole-4-carboxylic acid amide]: 68.3 nM, 241 nM, 412 nM and 2180 nM.
For the compound `NC(=O)c1nc(-c2c(F)cccc2F)oc1Nc1ccc(S(N)(=O)=O)cc1` [Example 2, 2-(2,6-difluorophenyl)-5-(4-sulfamoylphenylamino)oxazole-4-carboxamide], the 50% inhibitory concentration (IC50) worked out at 14.6 nM on TYK2 kinase, 78.2 nM at JAK1, 147 nM at JAK2 and 419 nM at JAK3.
As to `CS(=O)(=O)c1ccc(Nc2oc(-c3cc(F)ccc3F)nc2C(N)=O)cc1` [Example 22, 2-(2,5-Difluoro-phenyl)-5-(4-methanesulfonyl-phenylamino)-oxazole-4-carboxylic acid amide], the IC50 turned out to be 183 nM on TYK2 kinase, 843 nM on JAK1, 663 nM at JAK2 and 5500 nM on JAK3.
In the same order, the values of `CN1CCC(NC(=O)c2ccc(Nc3oc(-c4c(F)cccc4F)nc3C(N)=O)cc2)CC1` [Example 18, 5-(4-((1-methylpiperidin-4-yl)carbamoyl)phenylamino)-2-(2,6-difluorophenyl) oxazole-4-carboxamide] are 13.8 nM, 118 nM, 192 nM and 165 nM.
The matching figures for `NC(=O)c1nc(-c2c(F)cccc2F)oc1Nc1ccc(C(=O)N[C@H]2CCNC2)cc1` [Example 13, (S)-2-(2,6-difluorophenyl)-5-(4-(pyrrolidin-3-ylcarbamoyl)phenylamino)oxazole-4-carboxamide]: 11.2 nM, 123 nM, 182 nM and 342 nM.
In the same order, the values of `NC(=O)c1nc(-c2c(F)cccc2F)oc1Nc1ccc(C(=O)N[C@@H]2CCNC2)cc1` [Example 12, (R)-2-(2,6-difluorophenyl)-5-(4-(pyrrolidin-3-ylcarbamoyl)phenylamino)oxazole-4-carboxamide] are 23.4 nM, 169 nM, 292 nM and 346 nM.
Regarding `CNS(=O)(=O)c1ccc(Nc2oc(-c3c(F)cccc3F)nc2C(N)=O)cc1` [Example 4, 2-(2,6-difluorophenyl)-5-(4-(N′-methylsulfamoyl)phenylamino)oxazole-4-carboxamide], the IC50 stood at 13.8 nM on TYK2 kinase, 65.6 nM at JAK1, 109 nM at JAK2 and 387 nM on JAK3.
The matching figures for `CNCCCNC(=O)c1ccc(Nc2oc(-c3c(F)cccc3F)nc2C(N)=O)cc1` [Example 11, 5-(4-((3-(methylamino)propyl)carbamoyl)phenylamino)-2-(2,6-difluorophenyl) oxazole-4-carboxamide]: 15.1 nM, 190 nM, 338 nM and 388 nM.
With `CS(=O)(=O)c1ccc(Nc2oc(-c3c(F)cccc3Cl)nc2C(N)=O)cc1` [Example 20, 2-(2-Chloro-6-fluoro-phenyl)-5-(4-methanesulfonyl-phenylamino)-oxazole-4-carboxylic acid amide], the IC50 at TYK2 kinase came out at 2.7 nM; at JAK1 it was 28.7 nM; on JAK2 it was 72.6 nM; on JAK3, 165 nM.
Turning to `CNCCNC(=O)c1ccc(Nc2oc(-c3c(F)cccc3F)nc2C(N)=O)cc1` [Example 10, 5-(4-((2-(methylamino)ethyl)carbamoyl)phenylamino)-2-(2,6-difluorophenyl) oxazole-4-carboxamide], the IC50 on TYK2 kinase came out at 20.5 nM; at JAK1, 183 nM; at JAK2 it was 311 nM; at JAK3 it was 397 nM.
The matching figures for `CN(C)C(=O)c1ccc(Nc2oc(-c3c(F)cccc3F)nc2C(N)=O)cc1` [Example 5, 2-(2,6-difluorophenyl)-5-(4-(dimethylcarbamoyl)phenylamino)oxazole-4-carboxamide]: 9.2 nM, 88.6 nM, 112 nM and 219 nM.
The matching figures for `NC(=O)c1nc(-c2c(F)cccc2F)oc1Nc1ccc(C(=O)NCCO)cc1` [Example 15, 5-(4-((2-hydroxyethyl)carbamoyl)phenylamino)-2-(2,6-difluorophenyl)oxazole-4-carboxamide]: 7.5 nM, 41.1 nM, 101 nM and 195 nM.
The matching figures for `NCCCNC(=O)c1ccc(Nc2oc(-c3c(F)cccc3F)nc2C(N)=O)cc1` [Example 6, 5-(4-((3-aminopropyl)carbamoyl)phenylamino)-2-(2,6-difluorophenyl)oxazole-4-carboxamide]: 25 nM, 192 nM, 297 nM and 472 nM.
Regarding `NC(=O)c1nc(-c2c(F)cccc2F)oc1Nc1ccc(C(=O)N[C@@H]2CCCNC2)cc1` [Example 7, (R)-2-(2,6-difluorophenyl)-5-(4-(piperidin-3-ylcarbamoyl)phenylamino)oxazole-4-carboxamide], the half-inhibitory concentration (IC50) was determined as 9.8 nM at TYK2 kinase, 202 nM on JAK1, 261 nM at JAK2 and 419 nM at JAK3.
In the same order, the values of `NC(=O)c1nc(-c2c(F)cccc2F)oc1Nc1ccc(C(=O)N2CCOCC2)cc1` [Example 9, 2-(2,6-difluorophenyl)-5-(4-(morpholine-4-carbonyl)phenylamino)oxazole-4-carboxamide] are 22.7 nM, 75.6 nM, 267 nM and 423 nM.
Turning to `NC(=O)c1nc(-c2c(F)cccc2F)oc1Nc1ccc(C(=O)N2CCC[C@@H]2CO)cc1` [Example 14, (R)-2-(2,6-difluorophenyl)-5-(4-(2-(hydroxymethyl)pyrrolidine-1-carbonyl)phenylamino)oxazole-4-carboxamide], the IC50 worked out at 9.6 nM at TYK2 kinase, 67.2 nM at JAK1, 36 nM at JAK2 and 126 nM on JAK3.
`CS(=O)(=O)c1ccc(Nc2oc(-c3c(Cl)cccc3Cl)nc2C(N)=O)cc1` [Example 19, 2-(2,6-Dichloro-phenyl)-5-(4-methanesulfonyl-phenylamino)-oxazole-4-carboxylic acid amide]: the IC50 at TYK2 kinase was determined as 2.3 nM; on JAK1, 21.9 nM; on JAK2, 87.7 nM; at JAK3 it was 214 nM.
In the same order, the values of `CS(=O)(=O)c1ccc(Nc2oc(-c3c(F)cccc3F)nc2C(N)=O)cc1` [Example 1, 2-(2,6-difluorophenyl)-5-(4-(methylsulfonyl)phenylamino)oxazole-4-carboxamide] are 13.5 nM, 90.2 nM, 235 nM and 405 nM.
For `NC(=O)c1nc(-c2c(F)cccc2F)oc1Nc1ccc(C(=O)NCCCO)cc1` [Example 16, 5-(4-((3-hydroxypropyl)carbamoyl)phenylamino)-2-(2,6-difluorophenyl)oxazole-4-carboxamide], the IC50 worked out at 8.4 nM at TYK2 kinase, 58.1 nM at JAK1, 119 nM on JAK2 and 199 nM at JAK3.

The values are drawn from US10882829B2, “Pharmaceutical compounds” (Sareum Limited, priority 2012, dated 2021).
